Among the data in ChEMBL document CHEMBL2163308, “Small molecule activators of proteasome-related HslV peptidase” (Bioorg Med Chem Lett, 2012) are ED50 values, retold here.

Each structure is given as a SMILES string.

Assay [1] is described as follows: Activation of recombinant Escherichia coli HslU C-tail expressed in Escherichia coli BL21( DE3) cells using Z-GGL-AMC as substrate by fluorescence analysis.
In assay [2] the test system is Escherichia coli. In words: Activation of recombinant Escherichia coli HslV expressed in Escherichia coli BL21( DE3) cells using Z-GGL-AMC as substrate by fluorescence analysis.

With `O=C(Cn1c(-c2ccccn2)nc2ccccc21)c1ccc([N+](=O)[O-])cc1`, the ED50 turned out to be 2.6 µM in assay [1] and 0.6 µM in assay [2].
On the same counts, the results for `O=C(N/N=C/c1cc(=O)c2ccccc2o1)c1ccccc1` are 2.6 µM and 1.3 µM.
For the compound `O=C(Cn1c(-c2ccccn2)nc2ccccc21)c1ccc(O)c(O)c1`, the ED50 in assay [1] is 2.6 µM; in assay [2], 0.6 µM.
The matching figures for `O=c1c2ccccc2nc(-c2ccc([N+](=O)[O-])cc2)n1/N=C/c1c(O)ccc2ccccc12`: 2.6 µM and 0.9 µM.
